From patent US10897901B2, “Herbicidal composition” (FMC Corporation, priority 2007, dated 2021)

How the values were obtained:
Assay type in all cases: in vivo
crabgrass (Digitaria sp) = test: Example 4 post-emergence greenhouse pot test, crabgrass
Experimental: (§1) Test compositions containing sulfentrazone (75 DF formulation), quniclorac, (DRIVE® 75 DF Herbicide) or mixtures of sulfentrazone and quinclorac at ratios of 1:1 to 1:5, were diluted with water to provide the appropriate test rate concentrations. A nonionic surfactant (0.25%) was added to each test solution. The test weeds include crabgrass (Digitaria sp), Chickweed (Stellaria media), Hemp Sesbania (Sesbania exaltata), Kochia (Kochia scoparia), Ivyleaf Morningglory (Ipomoea hederacea), Redroot Pigweed (Amaranthus retroflexus) and yellow nutsedge (Cyperus esculentusi).
(§2) For post-emergence testing, three disposable 3 inch square pots for each rate of application of each herbicide were filled with a soil, comprised of peat moss, vermiculite, bark ash, pine bark, limestone and a wetting agent, to which 8 to 10 seeds were planted. The pots were placed in a greenhouse and watered daily, thus allowing the seeds to germinate and the foliage to develop for 22 days, 3 months for Kochia.
(§3) Pots designated for treatment were placed on a conveyor belt and the conveyor belt fed under a spray nozzle mounted about ten inches above the foliage. The spray of herbicidal solution was commenced and once stabilized; the pots were passed under the spray at a speed to receive a coverage equivalent of 30 gallons per acre. The application rates are those shown in Table 4 below for the individual herbicidal solutions and the mixture of sulfentrazone and quinclorac. The post-emergence pots were immediately placed in the green-house and not watered until 24 hours after treatment with the test solution. Thereafter they were regularly watered at ground level. The control of weeds was evaluated in each experimental test from 2 to 20 days after treatment (DAT). The results, shown as an average of the replications, were compared with results observed in untreated control pots in the same tests.
(§4) Percent control was determined by a method similar to the 0 to 100 rating system disclosed in “Research Methods in Weed Science,” 2nd ed., B. Truelove, Ed.; Southern Weed Science Society; Auburn University, Auburn, Ala., 1977.

[1] = test system: Hemp Sesbania (Sesbania exaltata); test: Example 4 post-emergence greenhouse pot test, hemp sesbania
Experimental: as §1, §2, §3, §4

Kochia (Kochia scoparia) = test: Example 4 post-emergence greenhouse pot test, kochia
Experimental: as §1, §2, §3, §4

[2] = test system: Field Violet (Viola arvensis); test: Example 1 post-emergent turf plot test, violet; conditions: 0.75 lb ai/acre
Experimental: The experimental design used randomized plots with post-emergent treatment and three replications per test trial. The size of each experimental plot was 4 feet by 6 feet. The application of each test composition was performed with pressurized back-pack sprayers, calibrated to spray 200 gallons per acre. Test compositions containing sulfentrazone (DISMISS™ Turf Herbicide), quniclorac, (FACET® 75 DF herbicide) or a mixture of sulfentrazone and quinclorac in a 1:3 ratio, prepared as described above, were diluted with water to provide the appropriate test rate concentrations.
The control of weeds was evaluated in each experimental plot from 7 to 41 days after treatment (DAT) of each test rate. The results, shown as an average of the replications, were compared with results observed in untreated control plots in the same trials.

[3] = test system: Red River crabgrass (Digitaria ciliaris); test: Example 3 post-emergence greenhouse pot test, crabgrass
Experimental: Test compositions containing sulfentrazone (DISMISS™ Turf Herbicide), quniclorac, (DRIVE® 75 DF Herbicide) or mixture of sulfentrazone and quinclorac in a three to one ratio, prepared as described above, were diluted with water to provide the appropriate test rate concentrations. A nonionic surfactant (0.25%) was added to each test solution.
The test weeds include Red River crabgrass (Digitaria ciliaris) and yellow nutsedge (Cyperus esculentusi).
For post-emergence testing, three disposable 3 inch square pots for each rate of application of each herbicide were filled with a soil, comprised of peat moss, vermiculite, bark ash, pine bark, limestone and a wetting agent, to which 8 to 10 seeds were planted. The pots were placed in a greenhouse and watered daily, thus allowing the seeds to germinate and the foliage to develop.
as §3, with “Table 3” for “Table 4”, “from 1” for “from 2”, “to 22” for “to 20”
as §4

Structure (SMILES): O=C(O)c1c(Cl)ccc2cc(Cl)cnc12 [B, 3,7-dichloro-8-quinolinecarboxylic acid]
- Percent Control (crabgrass (Digitaria sp); 0.25 lb ai/acre, 2 DAT): 10%
- Percent Control (crabgrass (Digitaria sp); 0.25 lb ai/acre, 7 DAT): 20%
- Percent Control (crabgrass (Digitaria sp); 0.25 lb ai/acre, 14 DAT): 20%
- Percent Control (crabgrass (Digitaria sp); 0.25 lb ai/acre, 20 DAT): 10%
- Percent Control (crabgrass (Digitaria sp); 0.5 lb ai/acre, 2 DAT): 0%
- Percent Control (crabgrass (Digitaria sp); 0.5 lb ai/acre, 7 DAT): 10%
- Percent Control (crabgrass (Digitaria sp); 0.5 lb ai/acre, 14 DAT): 60%
- Percent Control (crabgrass (Digitaria sp); 0.5 lb ai/acre, 20 DAT): 50%
- Percent Control (crabgrass (Digitaria sp); 0.75 lb ai/acre, 2 DAT): 0%
- Percent Control (crabgrass (Digitaria sp); 0.75 lb ai/acre, 7 DAT): 0%
- Percent Control (crabgrass (Digitaria sp); 0.75 lb ai/acre, 14 DAT): 60%
- Percent Control (crabgrass (Digitaria sp); 0.75 lb ai/acre, 20 DAT): 50%
- Percent Control (crabgrass (Digitaria sp); 1.0 lb ai/acre, 2 DAT): 0%
- Percent Control (crabgrass (Digitaria sp); 1.0 lb ai/acre, 7 DAT): 10%
- Percent Control (crabgrass (Digitaria sp); 1.0 lb ai/acre, 14 DAT): 60%
- Percent Control (crabgrass (Digitaria sp); 1.0 lb ai/acre, 20 DAT): 70%
- Percent Control (crabgrass (Digitaria sp); 1.25 lb ai/acre, 2 DAT): 0%
- Percent Control (crabgrass (Digitaria sp); 1.25 lb ai/acre, 7 DAT): 10%
- Percent Control (crabgrass (Digitaria sp); 1.25 lb ai/acre, 14 DAT): 60%
- Percent Control (crabgrass (Digitaria sp); 1.25 lb ai/acre, 20 DAT): 70%
- Percent Control ([1]; 0.25 lb ai/acre, 2 DAT): 0%
- Percent Control ([1]; 0.25 lb ai/acre, 7 DAT): 0%
- Percent Control ([1]; 0.25 lb ai/acre, 14 DAT): 5%
- Percent Control ([1]; 0.25 lb ai/acre, 20 DAT): 20%
- Percent Control ([1]; 0.5 lb ai/acre, 2 DAT): 0%
- Percent Control ([1]; 0.5 lb ai/acre, 7 DAT): 10%
- Percent Control ([1]; 0.5 lb ai/acre, 14 DAT): 20%
- Percent Control ([1]; 0.5 lb ai/acre, 20 DAT): 60%
- Percent Control ([1]; 0.75 lb ai/acre, 2 DAT): 0%
- Percent Control ([1]; 0.75 lb ai/acre, 7 DAT): 0%
- Percent Control ([1]; 0.75 lb ai/acre, 14 DAT): 10%
- Percent Control ([1]; 0.75 lb ai/acre, 20 DAT): 60%
- Percent Control ([1]; 1.0 lb ai/acre, 2 DAT): 10%
- Percent Control ([1]; 1.0 lb ai/acre, 7 DAT): 10%
- Percent Control ([1]; 1.0 lb ai/acre, 14 DAT): 20%
- Percent Control ([1]; 1.0 lb ai/acre, 20 DAT): 60%
- Percent Control ([1]; 1.25 lb ai/acre, 2 DAT): 0%
- Percent Control ([1]; 1.25 lb ai/acre, 7 DAT): 0%
- Percent Control ([1]; 1.25 lb ai/acre, 14 DAT): 10%
- Percent Control ([1]; 1.25 lb ai/acre, 20 DAT): 50%
- Percent Control (Kochia (Kochia scoparia); 0.25 lb ai/acre, 2 DAT): 0%
- Percent Control (Kochia (Kochia scoparia); 0.25 lb ai/acre, 7 DAT): 0%
- Percent Control (Kochia (Kochia scoparia); 0.25 lb ai/acre, 14 DAT): 5%
- Percent Control (Kochia (Kochia scoparia); 0.25 lb ai/acre, 20 DAT): 5%
- Percent Control (Kochia (Kochia scoparia); 0.5 lb ai/acre, 2 DAT): 0%
- Percent Control (Kochia (Kochia scoparia); 0.5 lb ai/acre, 7 DAT): 0%
- Percent Control (Kochia (Kochia scoparia); 0.5 lb ai/acre, 14 DAT): 20%
- Percent Control (Kochia (Kochia scoparia); 0.5 lb ai/acre, 20 DAT): 20%
- Percent Control (Kochia (Kochia scoparia); 0.75 lb ai/acre, 2 DAT): 0%
- Percent Control (Kochia (Kochia scoparia); 0.75 lb ai/acre, 7 DAT): 0%
- Percent Control (Kochia (Kochia scoparia); 0.75 lb ai/acre, 14 DAT): 10%
- Percent Control (Kochia (Kochia scoparia); 0.75 lb ai/acre, 20 DAT): 5%
- Percent Control (Kochia (Kochia scoparia); 1.0 lb ai/acre, 2 DAT): 0%
- Percent Control (Kochia (Kochia scoparia); 1.0 lb ai/acre, 7 DAT): 0%
- Percent Control (Kochia (Kochia scoparia); 1.0 lb ai/acre, 14 DAT): 10%
- Percent Control (Kochia (Kochia scoparia); 1.0 lb ai/acre, 20 DAT): 20%
- Percent Control (Kochia (Kochia scoparia); 1.25 lb ai/acre, 2 DAT): 0%
- Percent Control (Kochia (Kochia scoparia); 1.25 lb ai/acre, 7 DAT): 0%
- Percent Control (Kochia (Kochia scoparia); 1.25 lb ai/acre, 14 DAT): 10%
- Percent Control (Kochia (Kochia scoparia); 1.25 lb ai/acre, 20 DAT): 10%
- Percent Control ([2]; 7 DAT): 43%
- Percent Control ([2]; 14 DAT): 46%
- Percent Control ([2]; 21 DAT): 43%
- Percent Control ([2]; 28 DAT): 41%
- Percent Control ([2]; 41 DAT): 37%
- Percent Control ([3]; 1-2 leaf stage, 11 days old, 0.375 lb ai/acre, 1 DAT): 0%
- Percent Control ([3]; 1-2 leaf stage, 11 days old, 0.375 lb ai/acre, 3 DAT): 5%
- Percent Control ([3]; 1-2 leaf stage, 11 days old, 0.375 lb ai/acre, 7 DAT): 5%
- Percent Control ([3]; 1-2 leaf stage, 11 days old, 0.375 lb ai/acre, 14 DAT): 0%
- Percent Control ([3]; 1-2 leaf stage, 11 days old, 0.375 lb ai/acre, 21 DAT): 0%
- Percent Control ([3]; 1-2 leaf stage, 11 days old, 0.75 lb ai/acre, 1 DAT): 0%
- Percent Control ([3]; 1-2 leaf stage, 11 days old, 0.75 lb ai/acre, 3 DAT): 10%
- Percent Control ([3]; 1-2 leaf stage, 11 days old, 0.75 lb ai/acre, 7 DAT): 5%
- Percent Control ([3]; 1-2 leaf stage, 11 days old, 0.75 lb ai/acre, 14 DAT): 0%
- Percent Control ([3]; 1-2 leaf stage, 11 days old, 0.75 lb ai/acre, 21 DAT): 0%
- Percent Control ([3]; 1-2 leaf stage, 11 days old, 1.0 lb ai/acre, 1 DAT): 0%
- Percent Control ([3]; 1-2 leaf stage, 11 days old, 1.0 lb ai/acre, 3 DAT): 10%
- Percent Control ([3]; 1-2 leaf stage, 11 days old, 1.0 lb ai/acre, 7 DAT): 10%
- Percent Control ([3]; 1-2 leaf stage, 11 days old, 1.0 lb ai/acre, 14 DAT): 2%
- Percent Control ([3]; 1-2 leaf stage, 11 days old, 1.0 lb ai/acre, 21 DAT): 2%
- Percent Control ([3]; 3-4 leaf stage, 1-2 tillers, 14 days old, 0.375 lb ai/acre, 1 DAT): 0%
- Percent Control ([3]; 3-4 leaf stage, 1-2 tillers, 14 days old, 0.375 lb ai/acre, 3 DAT): 5%
- Percent Control ([3]; 3-4 leaf stage, 1-2 tillers, 14 days old, 0.375 lb ai/acre, 7 DAT): 5%
- Percent Control ([3]; 3-4 leaf stage, 1-2 tillers, 14 days old, 0.375 lb ai/acre, 14 DAT): 0%
- Percent Control ([3]; 3-4 leaf stage, 1-2 tillers, 14 days old, 0.375 lb ai/acre, 21 DAT): 0%
- Percent Control ([3]; 3-4 leaf stage, 1-2 tillers, 14 days old, 0.75 lb ai/acre, 1 DAT): 0%
- Percent Control ([3]; 3-4 leaf stage, 1-2 tillers, 14 days old, 0.75 lb ai/acre, 3 DAT): 5%
- Percent Control ([3]; 3-4 leaf stage, 1-2 tillers, 14 days old, 0.75 lb ai/acre, 7 DAT): 5%
- Percent Control ([3]; 3-4 leaf stage, 1-2 tillers, 14 days old, 0.75 lb ai/acre, 14 DAT): 5%
- Percent Control ([3]; 3-4 leaf stage, 1-2 tillers, 14 days old, 0.75 lb ai/acre, 21 DAT): 0%
- Percent Control ([3]; 3-4 leaf stage, 1-2 tillers, 14 days old, 1.0 lb ai/acre, 1 DAT): 0%
- Percent Control ([3]; 3-4 leaf stage, 1-2 tillers, 14 days old, 1.0 lb ai/acre, 3 DAT): 5%
- Percent Control ([3]; 3-4 leaf stage, 1-2 tillers, 14 days old, 1.0 lb ai/acre, 7 DAT): 10%
- Percent Control ([3]; 3-4 leaf stage, 1-2 tillers, 14 days old, 1.0 lb ai/acre, 14 DAT): 5%
- Percent Control ([3]; 3-4 leaf stage, 1-2 tillers, 14 days old, 1.0 lb ai/acre, 21 DAT): 5%
